The source of these data is paper PMC10603551 (Oncology Reports, 2023).

pKi: −log10 of the molar value. Where a name gives a salt, the structure may show the parent alone.

This assay concerns the target T1, STAT5b (Homo sapiens, UniProt P51692).
T1 sequence (P51692 1-787): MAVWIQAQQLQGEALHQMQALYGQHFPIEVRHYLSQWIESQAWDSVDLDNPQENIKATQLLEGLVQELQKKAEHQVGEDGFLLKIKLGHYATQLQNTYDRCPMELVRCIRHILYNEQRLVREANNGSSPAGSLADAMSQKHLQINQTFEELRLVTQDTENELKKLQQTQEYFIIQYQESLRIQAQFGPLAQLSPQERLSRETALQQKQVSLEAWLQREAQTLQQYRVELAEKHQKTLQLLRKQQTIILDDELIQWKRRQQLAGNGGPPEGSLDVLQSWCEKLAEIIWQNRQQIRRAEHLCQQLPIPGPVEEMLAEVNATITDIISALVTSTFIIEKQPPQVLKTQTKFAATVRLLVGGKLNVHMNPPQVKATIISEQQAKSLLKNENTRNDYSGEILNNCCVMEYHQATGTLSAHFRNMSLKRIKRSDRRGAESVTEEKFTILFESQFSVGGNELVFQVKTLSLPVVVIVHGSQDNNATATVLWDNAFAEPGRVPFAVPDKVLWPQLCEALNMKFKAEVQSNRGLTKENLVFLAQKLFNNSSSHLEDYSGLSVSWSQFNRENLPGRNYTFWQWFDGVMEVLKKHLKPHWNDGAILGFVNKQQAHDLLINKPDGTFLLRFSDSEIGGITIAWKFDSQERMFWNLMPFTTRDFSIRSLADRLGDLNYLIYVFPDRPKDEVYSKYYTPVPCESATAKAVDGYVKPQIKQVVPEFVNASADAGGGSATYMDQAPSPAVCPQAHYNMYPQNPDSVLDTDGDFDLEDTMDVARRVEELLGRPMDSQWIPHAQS
Format: binding.

A word on the pKi: it is the Ki on a negative log10 scale, so that one unit is a factor of ten. The low end stands for a large Ki, the high end for a small Ki. On to `CC[C@@]1(O)C(=O)OCc2c1cc1n(c2=O)Cc2cc3c(CN(C)C)c(O)ccc3nc2-1` [compound 108, topotecan hydrochloride], for which the pKi is 5.52 to 6.00.
